Compound `CCn1cnc2c(Nc3cccc(NC(=O)C#CCN4CCN(C)CC4)c3)nc(NC3CCC(O)CC3)nc21` (centres unmarked) [Example 112, 4-(4-Methyl-piperazin-1-yl)-but-2-ynoic acid {3-[9-ethyl-2-(4-hydroxy-cyclohexylamino)-9H-purin-6-ylamino]-phenyl)-amide] has a melting point of 115 to 122 °C. For `CCn1cnc2c(Nc3ccc(NC(=O)Oc4ccccc4)cc3)nc(N[C@H]3CC[C@H](O)CC3)nc21`, the melting point was 135 to 139 °C. For `CCn1cnc2c(Nc3cccc(NC(=O)C#CCN4CCCCC4)c3)nc(NC3CCC(O)CC3)nc21` (centres unmarked) [Example 111, 4-Piperidin-1-yl-but-2-ynoic acid {3-[9-ethyl-2-(4-hydroxy-cyclohexyl-amino)-9H-purin-6-ylamino]-phenyl}-amide], the melting point was 150 °C. With `CCn1cnc2c(Nc3cccc(NC(=O)C#Cc4cccc(C(F)(F)F)c4)c3)nc(NC3CCC(O)CC3)nc21` (centres unmarked) [Example 103, 3-(3-Trifluoromethyl-phenyl)-propynoic acid {3-[9-ethyl-2-(4-hydroxy-cyclohexylamino)-9H-purin 6-ylamino]-phenyl}-amide] the melting point was 156 to 168 °C. Work on `CCn1cnc2c(Nc3cccc(NC(=O)C#Cc4ccc(Cl)cc4)c3)nc(N[C@H]3CC[C@H](O)CC3)nc21` [Example 92, N-{3-[9-Ethyl-2-(trans-4-hydroxy-cyclo-hexylamino)-9H-purin-6-yl-amino]-phenyl}-3-(4-chlorophenyl)-propargylic acid amide] yielded a melting point of 148 to 150 °C. `CCn1cnc2c(Nc3cccc(NC(=O)C#Cc4cc(C)ccc4C)c3)nc(N[C@H]3CC[C@H](O)CC3)nc21` [Example 109, N-{3-[9-Ethyl-2-(trans-4-hydroxy-cyclo-hexylamino)-9H-purin-6-yl-amino]-phenyl)-3-(2,5-dimethyl-phenyl)-propargylic acid amide] showed a melting point of 231 to 232 °C. Work on `CCn1cnc2c(Nc3cccc(C(=O)NCc4ccc(C(F)(F)F)cc4)c3)nc(N[C@H]3CC[C@H](O)CC3)nc21` [Example 76, 3-[9-ethyl-2-(trans-4-hydroxy-cyclohexylamino)-9H-purin-6-yl-amino]-N-(4-trifluoromethyl-benzyl)-benzamide] yielded a melting point of 129 to 137 °C. Compound `CCn1cnc2c(Nc3cccc(C(=O)NCc4ccc(OC)cc4)c3)nc(N[C@H]3CC[C@H](O)CC3)nc21` [Example 75, 3-[9-ethyl-2-(trans-4-hydroxy-cyclohexylamino)-9H-purin-6-yl-amino]-N-(4-methoxy-benzyl)-benzamide] has a melting point of 157 to 158 °C. With `CCn1cnc2c(Nc3cccc(C(=O)NCc4ccc(F)cc4)c3)nc(N[C@H]3CC[C@H](O)CC3)nc21` [Example 73, 3-[9-ethyl-2-(trans-4-hydroxy-cyclohexylamino)-9H-purin-6-yl-amino]-N-(4-fluoro-benzyl)-benzamide] the melting point was 165 to 167 °C. Compound `CC(C)n1cnc2c(Nc3cccc(NC(=O)C#Cc4ccc(F)cc4)c3)nc(NC3CCC(O)CC3)nc21` (centres unmarked) [Example 99, 3-(4-Fluoro-phenyl)-propynoic acid {3-[2-(4-hydroxy-cyclohexylamino)-9-isopropyl-9H-purin-6-ylamino]-phenyl}-amide] has a melting point of 145 to 147 °C. For `CCn1cnc2c(Nc3cccc(NC(=O)C#Cc4c(Cl)cccc4Cl)c3)nc(N[C@H]3CC[C@H](O)CC3)nc21` [Example 107, N-{3-[9-Ethyl-2-(trans-4-hydroxy-cyclo-hexylamino)-9H-purin-6-yl-amino]-phenyl}-3-(2,6-dichlorophenyl)-propargylic acid amide], the melting point was 234 to 236 °C. In the case of `CCn1cnc2c(Nc3cccc(NC(=O)C#Cc4cccc(C)n4)c3)nc(NC3CCC(O)CC3)nc21` (centres unmarked) [Example 105, 3-(6-Methyl-pyridin-2-yl)-propynoic acid {3-[9-ethyl-2-(4-hydroxy-cyclohexylamino)-9H-purin-6-ylamino]-phenyl}-amide], the melting point is reported as 149 to 156 °C. Compound `CCn1cnc2c(Nc3cccc(NC(=O)C#Cc4ccc(F)cc4)c3)nc(N[C@H]3CC[C@H](O)CC3)nc21` [Example 93, N-{3-[9-Ethyl-2-(trans-4-hydroxy-cyclo-hexylamino)-9H-purin-6-yl-amino]-phenyl}-3-(4-fluorophenyl)-propargylic acid amide] has a melting point of 144 to 146 °C. `CC(C)n1cnc2c(Nc3cccc(NC(=O)C#Cc4ccccc4)c3)nc(NC3CCC(O)CC3)nc21` (centres unmarked) [Example 100, 3-(Phenyl)-propynoic acid {3-[2-(4-hydroxy-cyclohexylamino)-9-isopropyl-9H-purin-6-ylamino]-phenyl}-amide] showed a melting point of 162 to 164 °C. `CCn1cnc2c(Nc3ccc(NC(=O)OCC(C)C)cc3)nc(N[C@H]3CC[C@H](O)CC3)nc21` [Example 84, {4-[9-Ethyl-2-(trans-4-hydroxy-cyclo-hexylamino)-9H-purin-6-yl-amino]-phenyl}-carbamic acid isobutyl ester] showed a melting point of 121 to 125 °C. `CC(C)n1cnc2c(Nc3cccc(NC(=O)C#Cc4ccc(Cl)cc4)c3)nc(NC3CCC(O)CC3)nc21` (centres unmarked) [Example 96, 3-(4-Chloro-phenyl)-propynoic acid {3-[2-(4-hydroxy-cyclohexylamino)-9-isopropyl-9H-purin-6-ylamino]-phenyl}-amide] showed a melting point of 156 to 158 °C. In the case of `CCn1cnc2c(Nc3cccc(NC(=O)Oc4ccccc4)c3)nc(N[C@H]3CC[C@H](O)CC3)nc21`, the melting point is reported as 131 to 134 °C. `CCn1cnc2c(Nc3cccc(NC(=O)OC)c3)nc(N[C@H]3CC[C@H](O)CC3)nc21` [Example 86, {3-[9-Ethyl-2-(trans-4-hydroxy-cyclo-hexylamino)-9H-purin-6-yl-amino]-phenyl}-carbamic acid methyl ester] showed a melting point of 214 to 217 °C. In the case of `CCn1cnc2c(Nc3cccc(NC(=O)C#Cc4ccc(OC)cc4)c3)nc(N[C@H]3CC[C@H](O)CC3)nc21` [Example 95, N-{3-[9-Ethyl-2-(trans-4-hydroxy-cyclo-hexylamino)-9H-purin-6-yl-amino]-phenyl}-3-(4-methoxyphenyl)-propargylic acid amide], the melting point is reported as 142 to 144 °C. In the case of `CCn1cnc2c(Nc3ccc(NC(=O)OC)cc3)nc(N[C@H]3CC[C@H](O)CC3)nc21` [Example 83, {4-(9-Ethyl-2-(trans-4-hydroxy-cyclo-hexylamino)-9H-purin-6-yl-amino]-phenyl)-carbamic acid methyl ester], the melting point is reported as 131 to 135 °C. For `CCn1cnc2c(Nc3cccc(NC(=O)C#Cc4cccs4)c3)nc(N[C@H]3CC[C@H](O)CC3)nc21` [Example 108, N-{3-[9-Ethyl-2-(trans-4-hydroxy-cyclo-hexylamino)-9H-purin-6-yl-amino]-phenyl}-3-(2-thiophenyl)-propargylic acid amide], the melting point was 158 to 161 °C. `CCn1cnc2c(Nc3cccc(NS(C)(=O)=O)c3)nc(N[C@H]3CC[C@H](O)CC3)nc21` [Example 80, N-{3-[9-Ethyl-2-(trans-4-hydroxy-cyclo-hexylamino)-9H-purin-6-yl-amino]-phenyl} methanesulfonamide] gave a melting point of 265 to 267 °C. For `Cc1ccc(C#CC(=O)Nc2cccc(Nc3nc(NC4CCC(O)CC4)nc4c3ncn4C(C)C)c2)cc1` (centres unmarked) [Example 97, 3-p-Tolyl-propynoic acid {3-[2-(4-hydroxy-cyclohexylamino)-9-isopropyl-9H-purin-6-ylamino]-phenyl}-amide], the melting point was 152 to 154 °C. In the case of `CCn1cnc2c(Nc3cccc(NC(=O)OCC(C)C)c3)nc(N[C@H]3CC[C@H](O)CC3)nc21` [Example 87, {3-[9-Ethyl-2-(trans-4-hydroxy-cyclo-hexylamino)-9H-purin-6-yl-amino]-phenyl}-carbamic acid isobutyl ester], the melting point is reported as 122 to 125 °C. Compound `CCn1cnc2c(Nc3cccc(C(=O)NCc4ccccc4)c3)nc(N[C@H]3CC[C@H](O)CC3)nc21` [Example 72, N-benzyl-3-[9-ethyl-2-(trans-4-hydroxy-cyclohexylamino)-9H-purin-6-yl-amino]-benzamide] has a melting point of 215 °C. Work on `CC(C)n1cnc2c(Nc3cccc(NC(=O)c4ccc(-c5ccccc5)cc4)c3)nc(NC3CCC(O)CC3)nc21` (centres unmarked) [Example 101, Biphenyl-4-carboxylic acid {3-[2-(4-hydroxy-cyclohexylamino)-9-isopropyl-9H-purin-6-ylamino]-phenyl]-amide] yielded a melting point of 226 to 228 °C. For `CCn1cnc2c(Nc3cccc(NC(=O)C#Cc4cccc(C)c4)c3)nc(NC3CCC(O)CC3)nc21` (centres unmarked) [Example 102, 3-m-Tolyl-propynoic acid {3-[9-ethyl-2-(4-hydroxy-cyclohexylamino)-9H-purin-6-ylamino]-phenyl}-amide], the melting point was 164 to 171 °C. Compound `CCn1cnc2c(Nc3cccc(NC(=O)C#Cc4nccc(C)n4)c3)nc(NC3CCC(O)CC3)nc21` (centres unmarked) [Example 106, 3-(4-Methyl-pyrimidin-2-yl)-propynoic acid {3-[9-ethyl-2-(4-hydroxy-cyclohexylamino)-9H-purin-6-ylamino]-phenyl}-amide] has a melting point of 167 to 177 °C. `COc1ccc(C#CC(=O)Nc2cccc(Nc3nc(NC4CCC(O)CC4)nc4c3ncn4C(C)C)c2)cc1` (centres unmarked) [Example 98, 3-(4-Methoxy-phenyl)-propynoic acid {3-[2-(4-hydroxy-cyclohexyl-amino)-9-isopropyl-9H-purin-6-ylamino]-phenyl)-amide] showed a melting point of 246 to 248 °C. `CCCCc1ccc(N(c2nc(N[C@H]3CCCC[C@H]3C(N)=O)nc3c2ncn3CC)S(N)(=O)=O)cc1` (relative stereo) [Example 1, cis-2-[6-(4-butyl-aminosulfonyl-phenylamino)-9-ethyl-9H-purin-2-yl-amino]-cyclohexanecarboxylic acid amide] gave a melting point of 220 °C. For `CCn1cnc2c(Nc3cccc(C(=O)NCc4ccc(C)cc4)c3)nc(N[C@H]3CC[C@H](O)CC3)nc21` [Example 74, 3-[9-ethyl-2-(trans-4-hydroxy-cyclohexylamino)-9H-purin-6-yl-amino]-N-(4-methyl-benzyl)-benzamide], the melting point was 130 to 134 °C. For `CCn1cnc2c(Nc3cccc(NC(=O)C#Cc4ccc(C)c(C)c4)c3)nc(N[C@H]3CC[C@H](O)CC3)nc21` [Example 110, N-(3-[9-Ethyl-2-(trans-4-hydroxy-cyclo-hexylamino)-9H-purin-6-yl-amino]-phenyl}-3-(3,4-dimethyl-phenyl)-propargylic acid amide], the melting point was 146 to 148 °C.

From US6767906B2, “2-amino-6-anilino-purines and their use as medicaments” (Novartis AG, priority 1999, dated 2004)
